Biological target: T1, Ah receptor (Rattus norvegicus, UniProt P41738)
T1 construct: pcDNA4/V5-His B was linked with the coding region of the rat Ah receptor gene; expressed in transfected cells
T1 sequence (P41738 10-853): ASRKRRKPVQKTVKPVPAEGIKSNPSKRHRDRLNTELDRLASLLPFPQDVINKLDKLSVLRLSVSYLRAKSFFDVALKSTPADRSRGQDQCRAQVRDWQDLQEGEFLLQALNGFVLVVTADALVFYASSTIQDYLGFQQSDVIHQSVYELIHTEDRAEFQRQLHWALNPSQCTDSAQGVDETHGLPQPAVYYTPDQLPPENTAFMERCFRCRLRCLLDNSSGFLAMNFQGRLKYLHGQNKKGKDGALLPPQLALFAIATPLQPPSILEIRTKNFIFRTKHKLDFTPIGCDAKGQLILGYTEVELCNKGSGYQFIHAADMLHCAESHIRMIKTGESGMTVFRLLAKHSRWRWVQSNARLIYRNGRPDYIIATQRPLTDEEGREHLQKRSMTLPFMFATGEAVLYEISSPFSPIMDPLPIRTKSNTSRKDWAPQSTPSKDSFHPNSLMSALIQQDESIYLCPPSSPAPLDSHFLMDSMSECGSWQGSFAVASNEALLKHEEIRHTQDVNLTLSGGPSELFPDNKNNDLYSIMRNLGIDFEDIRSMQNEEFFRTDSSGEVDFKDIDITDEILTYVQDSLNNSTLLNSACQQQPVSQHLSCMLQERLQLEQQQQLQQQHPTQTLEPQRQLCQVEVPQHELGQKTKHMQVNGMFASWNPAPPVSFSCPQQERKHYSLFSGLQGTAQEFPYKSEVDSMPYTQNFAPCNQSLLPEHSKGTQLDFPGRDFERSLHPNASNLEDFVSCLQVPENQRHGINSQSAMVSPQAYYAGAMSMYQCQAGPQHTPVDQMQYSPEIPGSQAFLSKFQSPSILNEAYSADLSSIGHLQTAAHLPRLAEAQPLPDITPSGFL
Experiment: Ah receptor transcriptional activation, luciferase reporter in recombinant N2a-SY1 cells
Type: cell-based
Conditions: for N2a-SY1 (magnification of activation) [signal-to-noise ratio] / N2a-SY1 (LUC) compensated value: luciferase luminescence RLU divided by absorbance of β-galactosidase: 24 hours, N2a-SY1 cells
Protocol: The recombinant cells (N2a-SY1) produced in Example 4 were seeded on a 24-well plate with about 80,000 cells per well and then cultured in a […] medium of 10% serum for several hours to overnight.
Next, the medium of the recombinant cell cultured in the above manner was aspirated to remove it, and DF 1:1 mediums of 10% serum which contained a 2,3,7,8-TCDD in concentrations of 0, 0.1, 1, 10, 100 and 1000 pg/mL, respectively were each dispensed in each well with 1 mL per well to culture cells. The culturing of cells was continued, the medium was removed after 24 hours and the cells were washed once with PBS 1 mL per well. Then, 200 μL per well of a PicaGene Cell Culture Lysis Reagent Luβ (manufactured by Toyo B-Net Co., Ltd.) diluted five times was added to each well, which was then allowed to stand at room temperature for 10 minutes or more to dissolve, thereby obtaining a cell extract. The obtained cell extract was frozen-stored in a freezing chamber, this frozen-stored plate was taken out of the freezing chamber, and the cell extract was fused at room temperature. 10 μL of the fused cell extract was transferred to a black 96-well plate. Then, 100 μL per well of a PicaGene (trademark) LT210 luminescence substrate solution was dispensed in each well of the plate and mixed and then, the plate was set to a Mithras LB940 Microplate Reader (manufactured by Berthold Japan K.K.) to measure a luminescence amount continuously. Separately, 10 μL of the above cell extract was transferred to a transparent 96-well plate. 150 μL of a β-galactosidase substrate solution (ONPG substrate solution) was added to each well of the plate, which was incubated at room temperature for 5 minutes, and then, 50 μL of a reaction stop solution (aqueous […] sodium carbonate solution) was added to each well. Then, the plate was set to a micro-plate reader to measure absorbance of each well at 405 nm. Using a standard curve, the absorbance was converted into the amount of β-galactosidase (ng) in the protein extract. The results are shown by a bar graph in FIG. 4, and also in Table 1 showing each value (in the table, each value is a compensated value calculated by dividing the luminescence relative light units (RLU) of luciferase by the absorbance of β-galactosidase and bB/A means the magnification of activation [signal-to-noise ratio]).
The stable recombinant cells (N2a-SY1) produced in Example 4 were seeded on a 24-well plate with about 80,000 cells per well and cultured in a DF 1:1 medium of 10% serum for several hours to overnight.
Next, the medium of the recombinant cell cultured in the above manner was aspirated to remove it, and DF 1:1 mediums of 10% serum which contained PCB126 at concentrations of 0, 0.2, 2, 20, 200, 2000, and 20000 pg/mL respectively were dispensed in each well with 1 mL per well to culture cells. The culturing of cells was continued, the medium was removed after 24 hours and the cells were washed once with PBS 1 mL per well. Then, 200 μL per well of a PicaGene Cell Culture Lysis Reagent Luβ (manufactured by Toyo B-Net Co., Ltd.) diluted five times was added to each well, which was then allowed to stand at room temperature for 10 minutes or more to dissolve, thereby obtaining a cell extract. The obtained cell extract was frozen-stored in a freezing chamber, this frozen-stored plate was taken out of the freezing chamber, and the cell extract was fused at room temperature. 10 μL of the fused cell extract was transferred to a black 96-well plate. Then, 100 μL per well of a PicaGene (trademark) LT210 luminescence substrate solution was dispensed in each well of the plate and mixed and then, the plate was set to a Mithras LB940 Microplate Reader (manufactured by Berthold Japan K.K.) to measure a luminescence amount continuously. Separately, 10 μL of the above cell extract was transferred to a transparent 96-well plate. […]

Compound: Clc1cc2c(cc1Cl)Oc1cc(Cl)c(Cl)cc1O2 [2,3,7,8-TCDD]
- N2a-SY1 (magnification of activation) [signal-to-noise ratio] (2,3,7,8-TCDD 0.01 pg/ml vs 0 pg/ml): 1.
- N2a-SY1 (LUC) compensated value: luciferase luminescence RLU divided by absorbance of β-galactosidase (2,3,7,8-TCDD 0.01 pg/ml): 1187.8
- N2a-SY1 (magnification of activation) [signal-to-noise ratio] (2,3,7,8-TCDD 0.1 pg/ml vs 0 pg/ml): 1.24
- N2a-SY1 (LUC) compensated value: luciferase luminescence RLU divided by absorbance of β-galactosidase (2,3,7,8-TCDD 0.1 pg/ml): 1451.5
- N2a-SY1 (magnification of activation) [signal-to-noise ratio] (2,3,7,8-TCDD 1 pg/ml vs 0 pg/ml): 1.34
- N2a-SY1 (LUC) compensated value: luciferase luminescence RLU divided by absorbance of β-galactosidase (2,3,7,8-TCDD 1 pg/ml): 1577.6
- N2a-SY1 (magnification of activation) [signal-to-noise ratio] (2,3,7,8-TCDD 10 pg/ml vs 0 pg/ml): 3.43
- N2a-SY1 (LUC) compensated value: luciferase luminescence RLU divided by absorbance of β-galactosidase (2,3,7,8-TCDD 10 pg/ml): 4029.7
- N2a-SY1 (magnification of activation) [signal-to-noise ratio] (2,3,7,8-TCDD 100 pg/ml vs 0 pg/ml): 4.88
- N2a-SY1 (LUC) compensated value: luciferase luminescence RLU divided by absorbance of β-galactosidase (2,3,7,8-TCDD 100 pg/ml): 5718.5
- N2a-SY1 (magnification of activation) [signal-to-noise ratio] (2,3,7,8-TCDD 1000 pg/ml vs 0 pg/ml): 5.22
- N2a-SY1 (LUC) compensated value: luciferase luminescence RLU divided by absorbance of β-galactosidase (2,3,7,8-TCDD 1000 pg/ml): 6132.5
- concentration in a sample that may be detected (Ah receptor transcriptional activation) (recombinant cell of the embodiment): 0.1 pg/mL

Compound: Clc1ccc(-c2cc(Cl)c(Cl)c(Cl)c2)cc1Cl [PCB126]
- N2a-SY1 (magnification of activation) [signal-to-noise ratio] (PCB126 0.2 pg/ml vs 0 pg/ml): 0.91
- N2a-SY1 (LUC) compensated value: luciferase luminescence RLU divided by absorbance of β-galactosidase (PCB126 0.2 pg/ml): 1882.6
- N2a-SY1 (magnification of activation) [signal-to-noise ratio] (PCB126 2 pg/ml vs 0 pg/ml): 1.15
- N2a-SY1 (LUC) compensated value: luciferase luminescence RLU divided by absorbance of β-galactosidase (PCB126 2 pg/ml): 2388
- N2a-SY1 (magnification of activation) [signal-to-noise ratio] (PCB126 20 pg/ml vs 0 pg/ml): 1.92
- N2a-SY1 (LUC) compensated value: luciferase luminescence RLU divided by absorbance of β-galactosidase (PCB126 20 pg/ml): 3991
- N2a-SY1 (magnification of activation) [signal-to-noise ratio] (PCB126 200 pg/ml vs 0 pg/ml): 2.74
- N2a-SY1 (LUC) compensated value: luciferase luminescence RLU divided by absorbance of β-galactosidase (PCB126 200 pg/ml): 5685.8
- N2a-SY1 (magnification of activation) [signal-to-noise ratio] (PCB126 2000 pg/ml vs 0 pg/ml): 3.08
- N2a-SY1 (LUC) compensated value: luciferase luminescence RLU divided by absorbance of β-galactosidase (PCB126 2000 pg/ml): 6401.6
- N2a-SY1 (magnification of activation) [signal-to-noise ratio] (PCB126 20000 pg/ml vs 0 pg/ml): 3.02
- N2a-SY1 (LUC) compensated value: luciferase luminescence RLU divided by absorbance of β-galactosidase (PCB126 20000 pg/ml): 6264.8
- N2a-SY1 (magnification of activation) [signal-to-noise ratio] (PCB126 200000 pg/ml vs 0 pg/ml): 3.02
- N2a-SY1 (LUC) compensated value: luciferase luminescence RLU divided by absorbance of β-galactosidase (PCB126 200000 pg/ml): 6268.9

— patent publication US8658363B2, “Cell, method, and assay kit for measuring level of aryl hydrocarbon receptor transcriptional activation” (priority 2009, dated 2014)
